# According to US20200069677A1, “MARKERS FOR PERSONALIZED CANCER TREATMENT WITH LSD1 INHIBITORS” (Constellation Pharmaceuticals, Inc., priority 2016, published 2020):
# Columns and labels:
# SET2 xenografts = assay: In vivo efficacy on SET2 tumor xenografts; details: Nude mice; 1.5, 5 and 15 mg/kg p.o. QD; 14 days of dosing
# Procedure: FIG. 12 illustrates the in vivo efficacy of GSK2879552 on SET2 xenografts. […] Tumor-bearing animals were treated with 3 different dose levels of the KDM1A inhibitor: 1.5 mg/kg, 5 mg/kg, and 15 mg/kg administered orally (p.o.) on a daily schedule (QD). […] Top right panel indicates body weight changes determined in the treated mice.
# KDM1A/CoREST complex [1] = target: T1, KDM1A/CoREST complex (Homo sapiens, UniProt O60341); assay: Anti-KDM1A immunoprecipitation and Western blot in SET2 cells; type: cell-based; parameters: endogenous in cells; host or cells: SET2 cells
# Procedure: […] Cells were harvested, washed twice with cold PBS and resuspended in 5 volumes of Buffer A (10 mM Tris-HCL (pH 8.0), 1.5 mM MgCl2, 10 mM KCl, 0.5 mM DTT, supplemented with protease inhibitors). After 15 minutes on ice, cells were spun down at 1000×g for 15 minutes and the supernatant was removed as the cytosolic fraction. Pellets were resuspended in Buffer C (20 mM Tris-HCl, (pH 7.9), 25% glycerol, 0.42 M NaCl, 1.5 mM MgCl2, 0.2 mM EDTA, 0.5 mM DTT and protease inhibitors) and sonicated briefly (3 seconds, 40% output). After incubating on ice for 30 minutes, cells were spun at 20,000×g for 20 minutes to pellet the insoluble material. The supernatant was removed (soluble nuclear fraction) and combined with the cytosolic fraction to reconstitute a whole cell lysate with a final NaCl concentration of <200 mM. […] Co-precipitated proteins were detected by western blotting using the indicated primary antibodies. […] Bound antibodies were detected with goat anti-rabbit IgG antibody and goat anti-mouse IgG, conjugated with DyLight 800 AND DyLight 680, respectively. […]
# KDM1A/CoREST complex [2] = target: T1, KDM1A/CoREST complex; assay: Anti-KDM1A immunoprecipitation and Western blot in HEL cells; type: cell-based; parameters: endogenous in cells; details: overnight at 1 μM
# Procedure: For immunoprecipitation, 3 μg of anti-KDM1A antibody (Bethyl Labs, Montgomery, Tex.) or rabbit IgG (Cell Signaling, Danvers, Mass.) were added to 0.5 mg of reconstituted whole cell lysate and placed on a rotator at 4° C. overnight. To isolate the immune complexes, 50 μL of pre-washed Protein G magnetic beads (Dynabeads, Invitrogen) equilibrated in A+C buffer (1:1) were added and the samples were rotated for 4° C. for an additional 2 hours. Beads were captured using a magnetic stand (DynaMag, Invitrogen) and washed 3 times with buffer A+C. The beads were re-suspended in 25 μl 2×SDS loading buffer and resolved on 4-12% SDS-PAGE gels. Co-precipitated proteins were detected by western blotting using the indicated primary antibodies. […] Here, HEL cells were treated with the KDM1A inhibitor RN-1 overnight at 1 μM concentration. Cell lysates were prepared and an immunoprecipitation was carried out using an anti-KDM1A antibody and rabbit IgG as a control. SDS-PAGE and Western blotting was performed on the input material and immunoprecipitated material. Blot was probed with an anti-GFI1B, anti-KDM1A, and anti-vinculin antibodies. Bound antibodies were detected with goat anti-rabbit IgG antibody and goat anti-mouse IgG, conjugated with DyLight 800 AND DyLight 680, respectively.
SMILES,Growth of SET-2 tumor xenografts (tumor size) (SET2 xenografts),"GFI1B association with the KDM1A/CoREST complex (co-immunoprecipitation) (KDM1A/CoREST complex [1]; SET2 cells, 1 μM RN-1 for 24 hours, vs DMSO)","CoREST retention in the KDM1A complex (co-immunoprecipitation) (KDM1A/CoREST complex [1]; SET-2 cells, overnight at 1 μM)",GFI1B association with the KDM1A/CoREST complex (co-immunoprecipitation) (KDM1A/CoREST complex [2])
O=C(O)c1ccc(CN2CCC(CN[C@@H]3C[C@H]3c3ccccc3)CC2)cc1 [GSK2879552],reduced the growth of SET-2 tumor xenografts,,,
CN1CCN(C(=O)CN[C@@H]2CC2c2ccc(OCc3ccccc3)cc2)CC1 (stereo partly shown) [RN-1],,displacement of GFI1B from the KDM1A/CoREST complex,CoREST is retained in the KDM1A complex,displacement of GFI1B from the KDM1A/CoREST complex
